These results are taken from the kinase profiling compilation of Christmann-Franck et al. (2016).

Values joined by “and” are separate entries in the source; they are usually repeats but may differ in a detail not shown here. Equal entries are not always repeated.

PHKG1 (human), sequence (Q16816 whole entry, looked up): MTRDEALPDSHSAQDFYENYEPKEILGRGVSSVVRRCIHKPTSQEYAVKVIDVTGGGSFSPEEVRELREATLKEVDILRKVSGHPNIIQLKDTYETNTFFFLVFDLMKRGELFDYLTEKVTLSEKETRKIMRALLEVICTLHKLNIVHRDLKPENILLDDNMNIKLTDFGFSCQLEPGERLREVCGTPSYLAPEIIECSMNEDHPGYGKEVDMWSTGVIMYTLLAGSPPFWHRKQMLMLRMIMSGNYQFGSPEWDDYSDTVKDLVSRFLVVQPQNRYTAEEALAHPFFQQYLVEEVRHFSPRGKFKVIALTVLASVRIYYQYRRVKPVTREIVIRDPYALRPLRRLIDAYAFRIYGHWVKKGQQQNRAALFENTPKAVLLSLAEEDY
PRKD2 (human), sequence (Q9BZL6 whole entry, looked up): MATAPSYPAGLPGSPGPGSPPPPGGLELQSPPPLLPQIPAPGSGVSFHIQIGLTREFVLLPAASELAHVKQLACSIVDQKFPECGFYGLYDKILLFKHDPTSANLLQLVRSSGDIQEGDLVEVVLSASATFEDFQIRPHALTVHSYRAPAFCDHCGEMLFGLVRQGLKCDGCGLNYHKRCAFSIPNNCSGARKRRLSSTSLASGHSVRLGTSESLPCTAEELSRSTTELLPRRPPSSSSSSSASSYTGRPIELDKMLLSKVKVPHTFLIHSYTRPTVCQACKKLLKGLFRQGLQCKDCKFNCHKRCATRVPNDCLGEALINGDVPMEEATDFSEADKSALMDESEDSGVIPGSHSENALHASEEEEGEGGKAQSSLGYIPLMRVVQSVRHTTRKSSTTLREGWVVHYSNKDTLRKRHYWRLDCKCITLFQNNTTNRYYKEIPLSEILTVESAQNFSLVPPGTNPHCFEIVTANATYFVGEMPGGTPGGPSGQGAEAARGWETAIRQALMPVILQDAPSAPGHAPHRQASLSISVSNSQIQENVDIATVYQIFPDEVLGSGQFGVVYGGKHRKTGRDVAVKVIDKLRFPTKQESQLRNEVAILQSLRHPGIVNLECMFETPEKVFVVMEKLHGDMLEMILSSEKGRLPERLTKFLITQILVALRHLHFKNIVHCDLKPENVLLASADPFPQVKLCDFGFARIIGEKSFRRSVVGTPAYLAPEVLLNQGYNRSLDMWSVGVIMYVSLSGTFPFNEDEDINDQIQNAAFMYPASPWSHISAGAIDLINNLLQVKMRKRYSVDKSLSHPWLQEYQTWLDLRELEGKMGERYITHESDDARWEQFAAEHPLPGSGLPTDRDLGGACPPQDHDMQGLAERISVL
NEK2 (human), sequence (P51955 whole entry, looked up): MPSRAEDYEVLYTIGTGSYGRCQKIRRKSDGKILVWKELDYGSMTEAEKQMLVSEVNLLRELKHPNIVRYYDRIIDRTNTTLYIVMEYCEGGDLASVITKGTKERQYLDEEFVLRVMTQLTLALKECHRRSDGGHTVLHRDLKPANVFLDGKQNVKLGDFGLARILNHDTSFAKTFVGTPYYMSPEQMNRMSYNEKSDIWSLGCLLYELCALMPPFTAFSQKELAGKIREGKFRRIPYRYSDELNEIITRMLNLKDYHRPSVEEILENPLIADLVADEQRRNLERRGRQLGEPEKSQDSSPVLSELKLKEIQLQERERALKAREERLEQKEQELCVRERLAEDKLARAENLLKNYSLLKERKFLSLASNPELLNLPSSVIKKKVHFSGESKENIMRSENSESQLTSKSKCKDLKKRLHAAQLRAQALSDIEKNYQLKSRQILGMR

For the first experiment, the target named is CLK3 (human) (UniProt P49761). Put plainly: radiometric filter-binding kinase assay, Kinase HotSpot. The conditions noted are these: compound 0.5 µM; ATP 10 µM.
As a reminder, the residual activity is the signal under treatment as a percentage of the control signal. Regarding `CC(=O)c1ccc(N2CCOCC2)cc1O`, the residual activity came to 101%.

Consider `Cc1ccc(NC2=CC(=O)c3sc(C)nc3C2=O)cc1`, for which the residual activity was 98.6%.

As to `CCN(CC)C(=O)c1ccc(Nc2nc(OCC3CCCCC3)c3nc[nH]c3n2)cc1`, the residual activity turned out to be 84.1%.

Another experiment addresses PAK4 (human) (UniProt O96013). The description is as above. The conditions noted are these: compound 0.5 µM; ATP 10 µM.
Consider `CC(=O)c1ccc(N2CCOCC2)cc1O`, for which the residual activity turned out to be 103%.

`Cc1ccc(NC2=CC(=O)c3sc(C)nc3C2=O)cc1`: the residual activity came to 105%.

On to `CCN(CC)C(=O)c1ccc(Nc2nc(OCC3CCCCC3)c3nc[nH]c3n2)cc1`, for which the residual activity amounted to 51.5%.

The target in a further experiment is ADRBK2 (human) (UniProt P35626). The description is as above. The conditions noted are these: compound 0.5 µM; ATP 10 µM.
For `CC(=O)c1ccc(N2CCOCC2)cc1O`, the residual activity was determined as 89.1%.

Turning to `Cc1ccc(NC2=CC(=O)c3sc(C)nc3C2=O)cc1`, the residual activity stood at 84.5%.

On to `CCN(CC)C(=O)c1ccc(Nc2nc(OCC3CCCCC3)c3nc[nH]c3n2)cc1`, for which the residual activity came to 92.7%.

The target in another experiment is MELK (human) (UniProt Q14680). The experiment is described as above. The conditions noted are these: compound 0.5 µM; ATP 10 µM.
MELK (human), sequence (Q14680 whole entry, looked up): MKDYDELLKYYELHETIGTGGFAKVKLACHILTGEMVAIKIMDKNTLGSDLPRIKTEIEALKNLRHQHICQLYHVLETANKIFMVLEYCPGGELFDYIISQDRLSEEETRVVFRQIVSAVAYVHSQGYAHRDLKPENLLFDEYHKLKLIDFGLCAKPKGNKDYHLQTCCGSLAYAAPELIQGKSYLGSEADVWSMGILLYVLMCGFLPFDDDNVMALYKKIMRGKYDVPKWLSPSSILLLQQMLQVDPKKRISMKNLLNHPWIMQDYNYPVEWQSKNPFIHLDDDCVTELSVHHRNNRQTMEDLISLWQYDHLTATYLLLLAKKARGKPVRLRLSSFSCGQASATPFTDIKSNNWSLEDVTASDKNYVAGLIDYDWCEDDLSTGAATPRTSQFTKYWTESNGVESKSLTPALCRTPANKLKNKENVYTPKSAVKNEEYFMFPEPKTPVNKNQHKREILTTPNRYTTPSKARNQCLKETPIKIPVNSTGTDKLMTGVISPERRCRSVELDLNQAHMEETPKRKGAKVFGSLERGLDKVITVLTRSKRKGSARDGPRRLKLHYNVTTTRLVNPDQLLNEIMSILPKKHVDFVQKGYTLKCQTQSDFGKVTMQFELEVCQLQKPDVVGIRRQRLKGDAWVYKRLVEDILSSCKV
On to `CC(=O)c1ccc(N2CCOCC2)cc1O`, for which the residual activity came out at 102%.

Consider `Cc1ccc(NC2=CC(=O)c3sc(C)nc3C2=O)cc1`, for which the residual activity stood at 93.2%.

For `CCN(CC)C(=O)c1ccc(Nc2nc(OCC3CCCCC3)c3nc[nH]c3n2)cc1`, the residual activity came to 76.3%.

For a further experiment, the target named is NTRK2 (human) (UniProt Q16620). The description is as above. The conditions noted are these: compound 0.5 µM; ATP 10 µM.
Take `CC(=O)c1ccc(N2CCOCC2)cc1O`: the residual activity turned out to be 92.1%.

With `Cc1ccc(NC2=CC(=O)c3sc(C)nc3C2=O)cc1`, the residual activity was 100%.

Take `CCN(CC)C(=O)c1ccc(Nc2nc(OCC3CCCCC3)c3nc[nH]c3n2)cc1`: the residual activity was 54.3%.

Another experiment deals with SRC (human) (UniProt P12931). Described as above. The conditions noted are these: compound 0.5 µM; ATP 10 µM.
In the case of `CC(=O)c1ccc(N2CCOCC2)cc1O`, the residual activity was determined as 104%.

In the case of `Cc1ccc(NC2=CC(=O)c3sc(C)nc3C2=O)cc1`, the residual activity worked out at 79.6%.

As for `CCN(CC)C(=O)c1ccc(Nc2nc(OCC3CCCCC3)c3nc[nH]c3n2)cc1`, the residual activity stood at 72.8%.

In the next experiment the target is TTK (human) (UniProt P33981). The description is as above. The conditions noted are these: compound 0.5 µM; ATP 10 µM.
TTK (human), sequence (P33981 whole entry, looked up): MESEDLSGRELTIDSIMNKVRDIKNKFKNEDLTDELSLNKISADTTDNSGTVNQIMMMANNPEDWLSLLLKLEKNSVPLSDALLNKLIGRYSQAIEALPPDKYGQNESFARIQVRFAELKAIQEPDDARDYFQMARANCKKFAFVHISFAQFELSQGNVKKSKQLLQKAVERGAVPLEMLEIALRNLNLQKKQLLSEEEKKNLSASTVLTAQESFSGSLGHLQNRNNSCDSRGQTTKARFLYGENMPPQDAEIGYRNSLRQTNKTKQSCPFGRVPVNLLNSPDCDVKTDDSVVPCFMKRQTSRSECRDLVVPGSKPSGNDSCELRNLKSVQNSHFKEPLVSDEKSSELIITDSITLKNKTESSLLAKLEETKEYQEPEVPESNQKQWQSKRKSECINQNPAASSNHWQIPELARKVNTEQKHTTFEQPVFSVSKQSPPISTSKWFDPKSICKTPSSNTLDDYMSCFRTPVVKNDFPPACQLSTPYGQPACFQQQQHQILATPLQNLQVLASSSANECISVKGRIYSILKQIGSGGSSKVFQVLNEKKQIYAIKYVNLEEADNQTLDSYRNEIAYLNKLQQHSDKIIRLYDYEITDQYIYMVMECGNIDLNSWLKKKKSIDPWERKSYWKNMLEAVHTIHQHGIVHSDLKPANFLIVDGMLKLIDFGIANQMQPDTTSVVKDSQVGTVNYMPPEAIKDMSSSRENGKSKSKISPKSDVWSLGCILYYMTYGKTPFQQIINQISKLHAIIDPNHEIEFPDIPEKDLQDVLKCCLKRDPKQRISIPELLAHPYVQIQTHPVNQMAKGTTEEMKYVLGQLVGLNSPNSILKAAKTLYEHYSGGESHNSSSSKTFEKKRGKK
`CC(=O)c1ccc(N2CCOCC2)cc1O`: the residual activity turned out to be 103%.

In the case of `Cc1ccc(NC2=CC(=O)c3sc(C)nc3C2=O)cc1`, the residual activity came out at 98.9%.

For the compound `CCN(CC)C(=O)c1ccc(Nc2nc(OCC3CCCCC3)c3nc[nH]c3n2)cc1`, the residual activity worked out at 47.8%.

Another experiment has as its target AXL (human) (UniProt P30530). Described as above. The conditions noted are these: compound 0.5 µM; ATP 10 µM.
With `CC(=O)c1ccc(N2CCOCC2)cc1O`, the residual activity turned out to be 96.3%.

For the compound `Cc1ccc(NC2=CC(=O)c3sc(C)nc3C2=O)cc1`, the residual activity is 97%.

Regarding `CCN(CC)C(=O)c1ccc(Nc2nc(OCC3CCCCC3)c3nc[nH]c3n2)cc1`, the residual activity came out at 80.8%.

The target of the next experiment is CDK9 CCNT1 (human) (UniProt P50750+O60563). The description is as above. The conditions noted are these: compound 0.5 µM; ATP 10 µM.
Regarding `CC(=O)c1ccc(N2CCOCC2)cc1O`, the residual activity was found to be 100%.

As to `Cc1ccc(NC2=CC(=O)c3sc(C)nc3C2=O)cc1`, the residual activity is 97.6%.

For the compound `CCN(CC)C(=O)c1ccc(Nc2nc(OCC3CCCCC3)c3nc[nH]c3n2)cc1`, the residual activity is 88.8%.

Another experiment deals with NTRK3 (human) (UniProt Q16288). The experiment is described as above. The conditions noted are these: compound 0.5 µM; ATP 10 µM.
`CC(=O)c1ccc(N2CCOCC2)cc1O`: the residual activity is 101%.

On to `Cc1ccc(NC2=CC(=O)c3sc(C)nc3C2=O)cc1`, for which the residual activity came to 94%.

Regarding `CCN(CC)C(=O)c1ccc(Nc2nc(OCC3CCCCC3)c3nc[nH]c3n2)cc1`, the residual activity came out at 32.3%.

The next experiment addresses STK16 (human) (UniProt O75716). Described as above. The conditions noted are these: compound 0.5 µM; ATP 10 µM.
For `CC(=O)c1ccc(N2CCOCC2)cc1O`, the residual activity amounted to 110%.

For the compound `Cc1ccc(NC2=CC(=O)c3sc(C)nc3C2=O)cc1`, the residual activity was determined as 91.7%.

In the case of `CCN(CC)C(=O)c1ccc(Nc2nc(OCC3CCCCC3)c3nc[nH]c3n2)cc1`, the residual activity turned out to be 33.6%.

The next experiment addresses PHKG1 (human) (UniProt Q16816). The experiment is described as above. The conditions noted are these: compound 0.5 µM; ATP 10 µM.
For `CC(=O)c1ccc(N2CCOCC2)cc1O`, the residual activity worked out at 96.5%.

Consider `Cc1ccc(NC2=CC(=O)c3sc(C)nc3C2=O)cc1`, for which the residual activity is 88.7%.

For `CCN(CC)C(=O)c1ccc(Nc2nc(OCC3CCCCC3)c3nc[nH]c3n2)cc1`, the residual activity is 85.9%.

A further experiment concerns the target WEE1 (human) (UniProt P30291). The description is as above. The conditions noted are these: compound 0.5 µM; ATP 10 µM.
Take `CC(=O)c1ccc(N2CCOCC2)cc1O`: the residual activity turned out to be 97.5%.

`Cc1ccc(NC2=CC(=O)c3sc(C)nc3C2=O)cc1`: the residual activity turned out to be 107%.

With `CCN(CC)C(=O)c1ccc(Nc2nc(OCC3CCCCC3)c3nc[nH]c3n2)cc1`, the residual activity is 110%.

Another experiment has as its target LYN (human) (UniProt P07948). The description is as above. The conditions noted are these: compound 0.5 µM; ATP 10 µM.
As to `CC(=O)c1ccc(N2CCOCC2)cc1O`, the residual activity was 106% and 98.8%.

Regarding `Cc1ccc(NC2=CC(=O)c3sc(C)nc3C2=O)cc1`, the residual activity is 106% and 95.4%.

For `CCN(CC)C(=O)c1ccc(Nc2nc(OCC3CCCCC3)c3nc[nH]c3n2)cc1`, the residual activity was 78.2% and 89.7%.

The next experiment has as its target NEK2 (human) (UniProt P51955). Described as above. The conditions noted are these: compound 0.5 µM; ATP 10 µM.
On to `CC(=O)c1ccc(N2CCOCC2)cc1O`, for which the residual activity is 81.3%.

For the compound `Cc1ccc(NC2=CC(=O)c3sc(C)nc3C2=O)cc1`, the residual activity was determined as 96.4%.

Consider `CCN(CC)C(=O)c1ccc(Nc2nc(OCC3CCCCC3)c3nc[nH]c3n2)cc1`, for which the residual activity came to 91.4%.

The target of another experiment is GRK4 (human) (UniProt P32298). The experiment is described as above. The conditions noted are these: compound 0.5 µM; ATP 10 µM.
GRK4 (human), sequence (P32298 whole entry, looked up): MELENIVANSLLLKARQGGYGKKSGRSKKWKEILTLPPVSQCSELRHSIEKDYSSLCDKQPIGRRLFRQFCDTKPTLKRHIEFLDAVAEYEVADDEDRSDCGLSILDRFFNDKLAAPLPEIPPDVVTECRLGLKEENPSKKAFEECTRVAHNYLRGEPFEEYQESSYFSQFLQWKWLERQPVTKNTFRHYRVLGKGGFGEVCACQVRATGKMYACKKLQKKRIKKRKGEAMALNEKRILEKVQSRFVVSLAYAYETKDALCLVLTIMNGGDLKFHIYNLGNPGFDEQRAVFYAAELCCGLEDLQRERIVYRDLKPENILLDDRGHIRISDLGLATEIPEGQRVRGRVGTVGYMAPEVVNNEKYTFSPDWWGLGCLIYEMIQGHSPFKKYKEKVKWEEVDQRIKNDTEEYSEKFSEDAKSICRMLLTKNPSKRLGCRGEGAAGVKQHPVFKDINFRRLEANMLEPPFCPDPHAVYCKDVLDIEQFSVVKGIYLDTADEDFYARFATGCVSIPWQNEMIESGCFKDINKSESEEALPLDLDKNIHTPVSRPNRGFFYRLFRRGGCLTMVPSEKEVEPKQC
As to `CC(=O)c1ccc(N2CCOCC2)cc1O`, the residual activity is 106%.

On to `Cc1ccc(NC2=CC(=O)c3sc(C)nc3C2=O)cc1`, for which the residual activity amounted to 93.1%.

`CCN(CC)C(=O)c1ccc(Nc2nc(OCC3CCCCC3)c3nc[nH]c3n2)cc1`: the residual activity was 93%.

In the next experiment the target is NTRK1 (human) (UniProt P04629). Described as above. The conditions noted are these: compound 0.5 µM; ATP 10 µM.
NTRK1 (human), sequence (P04629 whole entry, looked up): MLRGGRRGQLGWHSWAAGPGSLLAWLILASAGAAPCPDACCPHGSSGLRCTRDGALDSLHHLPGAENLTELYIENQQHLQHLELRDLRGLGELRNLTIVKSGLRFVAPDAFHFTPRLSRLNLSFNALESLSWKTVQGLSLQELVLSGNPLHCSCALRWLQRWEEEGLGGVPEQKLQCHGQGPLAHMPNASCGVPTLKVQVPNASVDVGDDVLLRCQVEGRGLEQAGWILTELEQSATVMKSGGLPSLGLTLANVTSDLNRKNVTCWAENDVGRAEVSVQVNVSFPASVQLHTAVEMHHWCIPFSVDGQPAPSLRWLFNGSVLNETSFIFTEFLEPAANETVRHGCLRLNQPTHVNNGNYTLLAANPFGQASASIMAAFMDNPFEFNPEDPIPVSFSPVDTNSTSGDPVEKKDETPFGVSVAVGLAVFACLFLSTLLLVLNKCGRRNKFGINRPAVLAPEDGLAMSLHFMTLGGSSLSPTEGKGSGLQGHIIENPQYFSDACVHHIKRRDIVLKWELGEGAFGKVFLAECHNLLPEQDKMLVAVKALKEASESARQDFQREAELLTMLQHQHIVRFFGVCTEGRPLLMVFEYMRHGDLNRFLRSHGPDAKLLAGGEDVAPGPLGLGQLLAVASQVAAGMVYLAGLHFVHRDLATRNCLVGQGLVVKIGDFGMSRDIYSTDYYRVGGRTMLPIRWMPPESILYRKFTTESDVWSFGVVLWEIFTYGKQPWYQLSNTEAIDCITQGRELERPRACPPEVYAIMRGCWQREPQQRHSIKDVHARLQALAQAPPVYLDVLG
Take `CC(=O)c1ccc(N2CCOCC2)cc1O`: the residual activity was determined as 97.2%.

For the compound `Cc1ccc(NC2=CC(=O)c3sc(C)nc3C2=O)cc1`, the residual activity is 80.6%.

Regarding `CCN(CC)C(=O)c1ccc(Nc2nc(OCC3CCCCC3)c3nc[nH]c3n2)cc1`, the residual activity is 81.4%.

The target in another experiment is MAPK3 (human) (UniProt P27361). Described as above. The conditions noted are these: compound 0.5 µM; ATP 10 µM.
MAPK3 (human), sequence (P27361 whole entry, looked up): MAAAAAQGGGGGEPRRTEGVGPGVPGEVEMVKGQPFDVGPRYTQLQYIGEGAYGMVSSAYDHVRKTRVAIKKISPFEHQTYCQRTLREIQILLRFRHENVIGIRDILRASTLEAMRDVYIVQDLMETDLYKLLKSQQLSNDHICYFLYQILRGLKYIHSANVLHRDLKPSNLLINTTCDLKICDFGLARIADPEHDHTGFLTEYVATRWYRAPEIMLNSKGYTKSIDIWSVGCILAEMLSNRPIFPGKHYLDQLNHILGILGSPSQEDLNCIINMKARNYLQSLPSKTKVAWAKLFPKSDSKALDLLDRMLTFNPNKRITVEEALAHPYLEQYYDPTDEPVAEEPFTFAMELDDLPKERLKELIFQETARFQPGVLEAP
With `CC(=O)c1ccc(N2CCOCC2)cc1O`, the residual activity was determined as 103%.

`Cc1ccc(NC2=CC(=O)c3sc(C)nc3C2=O)cc1`: the residual activity came out at 100%.

As for `CCN(CC)C(=O)c1ccc(Nc2nc(OCC3CCCCC3)c3nc[nH]c3n2)cc1`, the residual activity was determined as 101%.

A further experiment has as its target PRKD2 (human) (UniProt Q9BZL6). Described as above. The conditions noted are these: compound 0.5 µM; ATP 10 µM.
For `CC(=O)c1ccc(N2CCOCC2)cc1O`, the residual activity worked out at 97.4%.

For the compound `Cc1ccc(NC2=CC(=O)c3sc(C)nc3C2=O)cc1`, the residual activity amounted to 87.7%.

For `CCN(CC)C(=O)c1ccc(Nc2nc(OCC3CCCCC3)c3nc[nH]c3n2)cc1`, the residual activity is 67%.

The target of the next experiment is BRSK1 (human) (UniProt Q8TDC3). Described as above. The conditions noted are these: compound 0.5 µM; ATP 10 µM.
As for `CC(=O)c1ccc(N2CCOCC2)cc1O`, the residual activity was determined as 97.6%.

In the case of `Cc1ccc(NC2=CC(=O)c3sc(C)nc3C2=O)cc1`, the residual activity is 88.6%.

For `CCN(CC)C(=O)c1ccc(Nc2nc(OCC3CCCCC3)c3nc[nH]c3n2)cc1`, the residual activity was found to be 84%.
